Test results: patent publication US9403813B2, “Azetidine amide derivatives as orexin receptor antagonists” (ACTELION PHARMACEUTICALS LTD, priority 2013, dated 2016)
pIC50: −log10 of the molar value.

What was measured:
human orexin-1 receptor = human orexin-1 receptor (Homo sapiens (Human), UniProt O43613); assay: Intracellular calcium measurements (FLIPR), antagonism of orexin-A response; type: cell-based; conditions: CHO cells expressing human orexin-1 receptor, 3 nM orexin-A, geometric mean if determined several times, read-out: IC50 OX1
Method: (§1) Antagonistic activities on both orexin receptors have been measured for each example compound using the following procedure:
(§2) In Vitro Assay: Intracellular Calcium Measurements:
(§3) Chinese hamster ovary (CHO) cells expressing the human orexin-1 receptor and the human orexin-2 receptor, respectively, are grown in culture medium (Ham F-12 with L-Glutamine) containing 300 μg/mL G418, 100 U/mL penicillin, 100 μg/mL streptomycin and 10% heat inactivated fetal calf serum (FCS). The cells are seeded at 20,000 cells/well into 384-well black clear bottom sterile plates (Greiner). The seeded plates are incubated overnight at 37° C. in 5% CO2. Human orexin-A as an agonist is prepared as 1 mM stock solution in MeOH:water (1:1), diluted in HBSS containing 0.1% bovine serum albumin (BSA), NaHCO3: 0.375 g/L and 20 mM HEPES for use in the assay at a final concentration of 3 nM.
(§4) Antagonists are prepared as 10 mM stock solution in DMSO, then diluted in 384-well plates using DMSO followed by a transfer of the dilutions into in HBSS containing 0.1% bovine serum albumin (BSA), NaHCO3: 0.375 g/L and 20 mM HEPES. On the day of the assay, 50 μL of staining buffer (HBSS containing 1% FCS, 20 mM HEPES, NaHCO3: 0.375 g/L, 5 mM probenecid (Sigma) and 3 μM of the fluorescent calcium indicator fluo-4 AM (1 mM stock solution in DMSO, containing 10% pluronic) is added to each well. The 384-well cell-plates are incubated for 50 min at 37° C. in 5% CO2 followed by equilibration at rt for 30 min before measurement.
(§5) Within the Fluorescent Imaging Plate Reader (FLIPR Tetra, Molecular Devices), antagonists are added to the plate in a volume of 10 μL/well, incubated for 120 min and finally 10 μL/well of agonist is added. Fluorescence is measured for each well at 1 second intervals, and the height of each fluorescence peak is compared to the height of the fluorescence peak induced by 3 nM orexin-A with vehicle in place of antagonist. The IC50 value (the concentration of compound needed to inhibit 50% of the agonistic response) is determined and may be normalized using the obtained IC50 value of an on-plate reference compound. Optimized conditions were achieved by adjustment of pipetting speed and cell splitting regime. The calculated IC50 values may fluctuate depending on the daily cellular assay performance. Fluctuations of this kind are known to those skilled in the art. In the case where IC50 values have been determined several times for the same compound, the geometric mean has been given.

human orexin-2 receptor = human orexin-2 receptor (Homo sapiens (Human), UniProt O43614); assay: as above; type: cell-based; conditions: CHO cells expressing human orexin-2 receptor, 3 nM orexin-A, geometric mean if determined several times, read-out: IC50 OX2
Method: as §1, §2, §3, §4, §5

human orexin-1 receptor, sequence (O43613 whole entry): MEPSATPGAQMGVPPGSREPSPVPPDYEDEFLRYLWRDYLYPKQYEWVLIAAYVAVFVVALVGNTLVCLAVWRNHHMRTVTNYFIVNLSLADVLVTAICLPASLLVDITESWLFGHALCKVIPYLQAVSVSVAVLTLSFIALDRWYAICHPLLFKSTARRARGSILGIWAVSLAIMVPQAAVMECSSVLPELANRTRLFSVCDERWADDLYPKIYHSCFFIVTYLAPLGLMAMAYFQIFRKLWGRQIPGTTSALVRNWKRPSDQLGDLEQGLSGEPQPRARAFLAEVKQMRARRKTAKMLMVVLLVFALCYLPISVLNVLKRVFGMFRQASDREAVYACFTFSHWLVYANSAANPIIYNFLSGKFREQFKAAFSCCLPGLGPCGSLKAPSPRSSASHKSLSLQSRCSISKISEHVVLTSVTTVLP
human orexin-2 receptor, sequence (O43614 whole entry): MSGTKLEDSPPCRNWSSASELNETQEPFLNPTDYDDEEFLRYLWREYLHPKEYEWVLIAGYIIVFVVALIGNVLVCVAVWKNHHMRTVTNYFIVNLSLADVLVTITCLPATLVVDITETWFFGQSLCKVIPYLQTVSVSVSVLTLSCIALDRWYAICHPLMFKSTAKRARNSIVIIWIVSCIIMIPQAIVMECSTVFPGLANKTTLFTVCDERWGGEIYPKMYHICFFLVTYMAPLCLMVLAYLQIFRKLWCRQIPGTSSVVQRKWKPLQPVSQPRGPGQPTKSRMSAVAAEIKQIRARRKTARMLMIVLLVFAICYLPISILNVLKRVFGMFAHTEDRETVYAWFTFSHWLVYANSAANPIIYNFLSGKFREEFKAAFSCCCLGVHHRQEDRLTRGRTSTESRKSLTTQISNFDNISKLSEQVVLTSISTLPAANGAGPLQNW

| pIC50 (human orexin-1 receptor) | pIC50 (human orexin-2 receptor) | SMILES |
| --- | --- | --- |
| 5.76 | 7.57 | COc1cc(C(=O)N2CC[C@H]2c2nc(-c3cccc(F)c3C)no2)c(-n2nccn2)cc1F [Example 25, (4-Fluoro-5-methoxy-2-[1,2,3]triazol-2-yl-phenyl)-{(S)-2-[3-(3-fluoro-2-methyl-phenyl)-[1,2,4]oxadiazol-5-yl]-azetidin-1-yl}-methanone] |
| 5.68 | 7.59 | COc1cc(C(=O)N2CC[C@H]2c2nc(-c3cccc(F)c3OC)no2)c(-n2nccn2)cc1F [Example 26, {(S)-2-[3-(3-Fluoro-2-methoxy-phenyl)-[1,2,4]oxadiazol-5-yl]-azetidin-1-yl}-(4-fluoro-5-methoxy-2-[1,2,3]triazol-2-yl-phenyl)-methanone] |
| 6.66 | 8.22 | COc1cc(C(=O)N2CC[C@H]2c2nc(-c3ccccc3OC(F)(F)F)no2)c(-n2nccn2)cc1C [Example 27, (5-Methoxy-4-methyl-2-[1,2,3]triazol-2-yl-phenyl)-{(S)-2-[3-(2-trifluoromethoxy-phenyl)-[1,2,4]oxadiazol-5-yl]-azetidin-1-yl}-methanone] |
| 6.40 | 8.70 | COc1cc(C(=O)N2CC[C@H]2c2nc(-c3cccc(Cl)c3C)no2)c(-n2nccn2)cc1C [Example 28, {(S)-2-[3-(3-Chloro-2-methyl-phenyl)-[1,2,4]oxadiazol-5-yl]-azetidin-1-yl}-(5-methoxy-4-methyl-2-[1,2,3]triazol-2-yl-phenyl)-methanone] |
| 6.17 | 8.40 | COc1cc(C(=O)N2CC[C@H]2c2nc(-c3cccc(F)c3C)no2)c(-n2nccn2)cc1C [Example 29, {(S)-2-[3-(3-Fluoro-2-methyl-phenyl)-[1,2,4]oxadiazol-5-yl]-azetidin-1-yl}-(5-methoxy-4-methyl-2-[1,2,3]triazol-2-yl-phenyl)-methanone] |
| 6.53 | 8.00 | CCOc1ncccc1-c1noc([C@@H]2CCN2C(=O)c2cc(C)ccc2-n2nccn2)n1 [Example 30, {(S)-2-[3-(2-Ethoxy-pyridin-3-yl)-[1,2,4]oxadiazol-5-yl]-azetidin-1-yl}-(5-methyl-2-[1,2,3]triazol-2-yl-phenyl)-methanone] |
| 7.17 | 8.52 | CCOc1ncccc1-c1noc([C@@H]2CCN2C(=O)c2cc(C)c(C)cc2-n2nccn2)n1 [Example 31, (4,5-Dimethyl-2-[1,2,3]triazol-2-yl-phenyl)-{(S)-2-[3-(2-ethoxy-pyridin-3-yl)-[1,2,4]oxadiazol-5-yl]-azetidin-1-yl}-methanone] |
| 6.09 | 7.00 | CCOc1ncccc1-c1noc([C@@H]2CCN2C(=O)c2ccc(C)cc2-n2nccn2)n1 [Example 32, {(S)-2-[3-(2-Ethoxy-pyridin-3-yl)-[1,2,4]oxadiazol-5-yl]-azetidin-1-yl}-(4-methyl-2-[1,2,3]triazol-2-yl-phenyl)-methanone] |
| 5.82 | 7.57 | CCOc1ncccc1-c1noc([C@@H]2CCN2C(=O)c2cc(OC)c(F)cc2-n2nccn2)n1 [Example 33, {(S)-2-[3-(2-Ethoxy-pyridin-3-yl)-[1,2,4]oxadiazol-5-yl]-azetidin-1-yl}-(4-fluoro-5-methoxy-2-[1,2,3]triazol-2-yl-phenyl)-methanone] |
| 6.62 | 8.30 | CCOc1ncccc1-c1noc([C@@H]2CCN2C(=O)c2cc(OC)c(C)cc2-n2nccn2)n1 [Example 34, {(S)-2-[3-(2-Ethoxy-pyridin-3-yl)-[1,2,4]oxadiazol-5-yl]-azetidin-1-yl}-(5-methoxy-4-methyl-2-[1,2,3]triazol-2-yl-phenyl)-methanone] |
| 5.42 | 6.54 | Cc1ccc(-n2nccn2)c(C(=O)N2CC[C@H]2c2nc(-c3ccccc3)no2)c1 [Example 36, (5-Methyl-2-[1,2,3]triazol-2-yl-phenyl)-[(S)-2-(3-phenyl-[1,2,4]oxadiazol-5-yl)-azetidin-1-yl]-methanone] |
| 6.34 | 7.23 | Cc1nc(C(=O)N2CC[C@H]2c2nc(-c3ccccc3OC(F)(F)F)no2)c(-c2ccccc2F)s1 [Example 37, [5-(2-Fluoro-phenyl)-2-methyl-thiazol-4-yl]-{(S)-2-[3-(2-trifluoromethoxy-phenyl)-[1,2,4]oxadiazol-5-yl]-azetidin-1-yl}-methanone] |
| 6.49 | 6.92 | Cc1cccc(-c2sc(C)nc2C(=O)N2CC[C@H]2c2nc(-c3ccccc3OC(F)(F)F)no2)c1 [Example 38, (2-Methyl-5-m-tolyl-thiazol-4-yl)-{(S)-2-[3-(2-trifluoromethoxy-phenyl)-[1,2,4]oxadiazol-5-yl]-azetidin-1-yl}-methanone] |
| 7.12 | 8.40 | Cc1ccc(-c2ccccc2)c(C(=O)N2CC[C@H]2c2nc(-c3ccccc3OC(F)(F)F)no2)c1 [Example 39, (4-Methyl-biphenyl-2-yl)-{(S)-2-[3-(2-trifluoromethoxy-phenyl)-[1,2,4]oxadiazol-5-yl]-azetidin-1-yl}-methanone] |
| 6.66 | 7.39 | Cc1nc(C(=O)N2CC[C@H]2c2nc(-c3ccccc3OC(F)(F)F)no2)c(-c2ccccc2)s1 [Example 40, (2-Methyl-5-phenyl-thiazol-4-yl)-{(S)-2-[3-(2-trifluoromethoxy-phenyl)-[1,2,4]oxadiazol-5-yl]-azetidin-1-yl}-methanone] |
| 7.37 | 8.00 | CN(C)c1nc(C(=O)N2CC[C@H]2c2nc(-c3ccccc3OC(F)(F)F)no2)c(-c2ccccc2)s1 [Example 41, (2-Dimethylamino-5-phenyl-thiazol-4-yl)-{(S)-2-[3-(2-trifluoromethoxy-phenyl)-[1,2,4]oxadiazol-5-yl]-azetidin-1-yl}-methanone] |
| 6.40 | 6.58 | O=C(c1ncsc1-c1ccccc1)N1CC[C@H]1c1nc(-c2ccccc2OC(F)(F)F)no1 [Example 42, (5-Phenyl-thiazol-4-yl)-{(S)-2-[3-(2-trifluoromethoxy-phenyl)-[1,2,4]oxadiazol-5-yl]-azetidin-1-yl}-methanone] |
| 6.54 | 6.45 | O=C(c1ncsc1-c1cccc(Cl)c1)N1CC[C@H]1c1nc(-c2ccccc2OC(F)(F)F)no1 [Example 43, [5-(3-Chloro-phenyl)-thiazol-4-yl]-{(S)-2-[3-(2-trifluoromethoxy-phenyl)-[1,2,4]oxadiazol-5-yl]-azetidin-1-yl}-methanone] |
| 6.55 | 7.14 | Cc1ccc(-c2sc(C)nc2C(=O)N2CC[C@H]2c2nc(-c3ccccc3OC(F)(F)F)no2)cc1 [Example 44, (2-Methyl-5-p-tolyl-thiazol-4-yl)-{(S)-2-[3-(2-trifluoromethoxy-phenyl)-[1,2,4]oxadiazol-5-yl]-azetidin-1-yl}-methanone] |
| 6.13 | 6.38 | Cc1nc(C(=O)N2CC[C@H]2c2nc(-c3ccccc3OC(F)(F)F)no2)c(-c2ccccc2C)s1 [Example 45, (2-Methyl-5-o-tolyl-thiazol-4-yl)-{(S)-2-[3-(2-trifluoromethoxy-phenyl)-[1,2,4]oxadiazol-5-yl]-azetidin-1-yl}-methanone] |
| 5.99 | 6.94 | Cc1cccc(-n2nccn2)c1C(=O)N1CC[C@H]1c1nc(-c2ccccc2OC(F)(F)F)no1 [Example 46, (2-Methyl-6-[1,2,3]triazol-2-yl-phenyl)-{(S)-2-[3-(2-trifluoromethoxy-phenyl)-[1,2,4]oxadiazol-5-yl]-azetidin-1-yl}-methanone] |
| 6.21 | 6.14 | O=C(c1cc(OC(F)(F)F)ccc1-n1nccn1)N1CC[C@H]1c1nc(-c2ccccc2OC(F)(F)F)no1 [Example 47, (2-[1,2,3]Triazol-2-yl-5-trifluoromethoxy-phenyl)-{(S)-2-[3-(2-trifluoromethoxy-phenyl)-[1,2,4]oxadiazol-5-yl]-azetidin-1-yl}-methanone] |

| SMILES | pIC50 (human orexin-1 receptor) | pIC50 (human orexin-2 receptor) |
| --- | --- | --- |
| Cc1ccc(-n2nccn2)c(C(=O)N2CC[C@H]2c2nc(-c3cccnc3OC3CCC3)no2)c1 [Example 35, {(S)-2-[3-(2-Cyclobutoxy-pyridin-3-yl)-[1,2,4]oxadiazol-5-yl]-azetidin-1-yl}-(5-methyl-2-[1,2,3]triazol-2-yl-phenyl)-methanone] | 6.53 | 7.15 |
